Test results: patent US10201558B2, “Compositions of selenoorganic compounds and methods of use thereof” (Alltech, Inc., priority 2014, dated 2019)
Entries after “also recorded” stand apart in the source; their conditions may differ.

Tests used:
Format in all cases: cell-based, human
[1] = system: MAPK11; test: QRT-PCR of MAPK11 mRNA in control and FOXO4 KD IMR-32 cells; details: 24 hours
Description: IMR-32 cells were cultured on 12-well plates for 24 hours and then incubated with FOXO4 siRNA lentiviruses (SC-29650V, Santa Cruz) or control siRNA lentiviruses (sc-108080, Santa Cruz) in the presence of Polybrene (5 μg/ml, Santa Cruz) for 24 hours according to the manufacturer's protocol. These lentiviral siRNA-transfected cells were amplified in normal media for 3 days and then incubated with puromycin for 9-14 days to obtain the stable Control KD (stably transfected with the control siRNAs) and FOXO4KD (stably transfected with Foxo4 siRNAs) cells. These control and Foxo4 KD cells were subjected to cell survival, mitochondrial potential and RNA analysis.
Human IMR-32 cells were seeded on gelatinized 6-well (6.5×10^5 cells/well) or 24-well (1.3×10^5 cells/well) plates. Cells were treated with control (0 ppb) or various compounds for 6 hours or 24 hours. Total RNA from these cells was isolated using Trizol (Invitrogen) according to the manufacturer's protocol, and then incubated with DNase I to remove any potential contaminated genomic DNA. Then RNA samples were subjected to real-time PCR analysis using the Applied-Bioscience's RT kit and predesigned Taqman probes (Invitrogen), as described previously (Lan et al EMBO J 2003). The mRNA levels of UCP1, UCP2, UCP3, SLC25A27 (UCP4), SLC25A14 (UCP5), PSEN1, Nicastrin, GSK3B, MAPK11-14, PPARG, APOE, RCAN1, RCAN1.1, G6PC, INSR, IGF1R and FOXO4 were measured. Three to six samples were analyzed in each treatment group. Data were normalized by Actin B (ACTB) or Glyceraldehyde Phosphate Dehydrogenase (GAPDH) mRNA levels in each sample and are presented as mean±SEM of 3-6 samples.
Normal control cells and FOXO4KD cells were incubated with two doses of Compound C for 24 hours, and subjected to QRT-PCR analysis of the MAPK11-14 genes. The relative mRNA expression of all four MAPK genes in normal control IMR-32 cells was assessed. […] Data in Compound C-treated control and FOXO4 KD cells were normalized by their levels in control and FOXO4KD cells, respectively. Mean±SEM of indicated number of samples in the bar graphs. […]

[2] = system: NOTCH signaling molecules in IMR-32 cells; test: QRT-PCR of key NOTCH signaling molecules in IMR-32 cells; details: 150 ppb; for HER2 mRNA expression (mean ± sem) / HES1 mRNA expression (mean ± sem) / HEY1 mRNA expression (mean ± sem) / NFKB1 mRNA expression (mean ± sem) / NFKB2 mRNA expression (mean ± sem) / NOTCH 1 mRNA expression (mean ± sem) / NOTCH 2 mRNA expression (mean ± sem) / NOTCH 3 mRNA expression (mean ± sem) / RBPJ mRNA expression (mean ± sem): control 100
Description: QRT-PCR analysis of several Notch signaling molecules was performed in IMR-32 cells to test if Compound C is toxic to the Notch signaling in vitro. In brief, IMR-32 cells were treated with a water control and 150 ppb Compound C in 10% FBS containing MEM media for 6 hours, 24 hours, and 48 hours. These molecules were selected based on the IPA GO search.

[3] = system: IMR-32 cells; test: Mitochondrial potential assay (Mitotracker Orange); details: 75 ppb and 150 ppb
Description: The mitochondrial potential per cell in control lentiviral KD IMR-32 or IMR-32 FOXO4 knockdown (KD) cells was determined using the Bio-TeK Synergy HT Multi-Mode fluorescence microplate reader with the following modifications. To improve the attachment of IMR-32 cells to culture dishes, cell culture plates were precoated with 0.1% gelatin (Sigma, St. Louis, Mo.).
To reduce cell dislodgment, Mitotracker Orange and Hoechst 33342 fluorescent dyes (diluted in culture media) were directly added to each well after control or compound treatments were added. After dye incubation, cell culture media was carefully replaced with 1×PBS buffer for the quantitation analysis of fluorescence on the microplate reader. Eight samples per each treatment were examined for the above analysis, and the experiments were repeated at least five times. Data are presented as mean±sem of eight samples.
Mitochondrial (MT) dysfunction and dysregulated glucose metabolism are associated with the onset of Alzheimer's Disease (AD). Likewise, as AD progresses, there is strong evidence that Aβ and Tau protein species precipitate further mitochondrial decline. […]

## C[Se]C[C@H]1O[C@@H](n2cnc3c(N)ncnc32)C(O)C1O (stereo in doubt) [Compound C, 5′-deoxy-5′-methylselenoadenosine]
[1]; FOXO4KD cells, 75 ppb and 150 ppb
  MAPK11 mRNA levels: none of the mRNA levels of the four MAPK genes in FOXO4KD cells were significantly altered
[1]; control KD cells, 75 ppb
  MAPK11 mRNA levels: significant decrease
[1]; control KD cells, 150 ppb
  MAPK11 mRNA levels: significantly decreased
[2]; 6 hours treatment (cell spans control and #C)
  NOTCH 4 mRNA expression: Undetected
[2]; 6 hours treatment
  HER2 mRNA expression (mean ± sem): 96 ± 4 (4)
  HES1 mRNA expression (mean ± sem): 101 ± 6 (4)
  HEY1 mRNA expression (mean ± sem): 120 ± 9 (4)
  NFKB1 mRNA expression (mean ± sem): 112 ± 7 (4)
  NFKB2 mRNA expression (mean ± sem): 103 ± 7 (4)
  NOTCH 1 mRNA expression (mean ± sem): 94 ± 7 (4)
  NOTCH 2 mRNA expression (mean ± sem): 95 ± 16 (4)
  NOTCH 3 mRNA expression (mean ± sem): 95 ± 7 (4)
  RBPJ mRNA expression (mean ± sem): trend of increased expression
[2]; 6 hours treatment, listed as #C
  RBPJ mRNA expression (mean ± sem): 144 ± 12 (4)
[2]; 6 hours, 24 hours and 48 hours
  expression of all tested Notch signaling genes: did not significantly inhibit
[2]; 24 hours treatment (cell spans control and #C)
  NOTCH 4 mRNA expression: Undetected
[2]; 24 hours treatment
  HER2 mRNA expression (mean ± sem): 100 ± 11
  HES1 mRNA expression (mean ± sem): 102 ± 18
  HEY1 mRNA expression (mean ± sem): 121 ± 10
  NFKB1 mRNA expression (mean ± sem): 106 ± 11
  NFKB2 mRNA expression (mean ± sem): 85 ± 28 (3)
  NOTCH 1 mRNA expression (mean ± sem): 89 ± 10 (3)
  NOTCH 2 mRNA expression (mean ± sem): 103 ± 27
  NOTCH 3 mRNA expression (mean ± sem): 105 ± 14
  RBPJ mRNA expression (mean ± sem): 119 ± 37
[2]; 48 hours treatment
  HER2 mRNA expression (mean ± sem): 106 ± 23
  HES1 mRNA expression (mean ± sem): 115 ± 9 (4)
  HEY1 mRNA expression (mean ± sem): 115 ± 11
  NFKB1 mRNA expression (mean ± sem): 109 ± 12
  NFKB2 mRNA expression (mean ± sem): 97 ± 14 (4)
  NOTCH 1 mRNA expression (mean ± sem): 90 ± 9 (3)
  NOTCH 2 mRNA expression (mean ± sem): 94 ± 40 (3)
  NOTCH 3 mRNA expression (mean ± sem): 81 ± 23 (4)
  RBPJ mRNA expression (mean ± sem): 97 ± 7 (4)
[3]; 6 hours
  MT potential (red fluorescence intensities, micrographs): remarkably enhanced
[3]; 6 hours and 24 hours
  MT potential, quantitative analysis normalized by stained cell nuclei: significant increase; also recorded: enhanced
